# In US20120028995A1, “NOVEL COMPOUNDS FOR MEDICAL USE AS PEPTIDASE EFFECTORS” (IMTM GMBH, priority 2010, published 2012):
# Read-outs that look alike come from different tables or passages of the source.
# Key:
# SZ95 cells = assay: Inhibition of DNA synthesis and proliferation of immortalized human sebocytes SZ95; assay type: cell-based; conditions: EGF-stimulated SZ95 sebocytes, tritium thymidine incorporation, read-out: Supp. DNA Synt. SZ95 IC50
# Method: The immortalized human sebocyte line SZ95 was provided by Prof. C Zouboulis [C C Zouboulis, H Seltmann, H Neitzel, C E Orfanos, Establishment and characterization of an immortalized human sebaceous gland cell line (SZ95). J. Invest. Dermatol. 113(6):1011-1020 (1999), the entire disclosure of which is incorporated by reference herein]. These adherent growing cells were cultured in serum-free Sebomed Complete (Biochrom). Recombinant EGF was added in order to stimulate DNA synthesis and proliferation of the SZ95 cells. Test items were added in concentrations from 0.1 up to 100 μM.
# The DNA synthesis of proliferating cells was detected by incorporation of radiolabelled tritium thymidine (3HT) and counting at a beta counter. Based on these raw data the relative proliferation response in relation to cells cultured in the absence of test compound (100% control) was calculated. IC50 values of proliferation suppression were assessed by computer-assisted graphical evaluation.
# [1] = test system: purified, recombinant DP8 and DP9; assay: Inhibition of enzymatic activity of DP8/9; assay type: biochemical; conditions: highest test item concentration 25 μM; for IC50: read-out: meas. IC50 (DP8/9)
# Method: (§1) The inhibition of the enzymatic activity of DPIV and related enzymes was measured by using purified, recombinant human DPIV (purified from transfected Sf9 cells, final enzyme concentration approx. 1 nM) as well as purified, recombinant DP8 and DP9 (purchased from Biomol). The assay was performed in 0.05M TRIS/HCl puffer pH 7.5, supplemented with 0.05% Triton (v/v), 0.05% BSA (w/v), 2 mM MgCl2.
# (§2) The enzymatic activity of DPIV was assessed by the hydrolysis of the fluorogenic substrates H-Gly-Pro-4-amino-7-methyl coumarine (abbreviation of fluorogenic group AMC; purchased from Bachem) or (Ala-Pro)2-Rhodamine 110 (abbreviation R110). The final substrate concentrations were 50 μM or 1 μM, respectively.
# (§3) The assay was performed in white microtitre plates for fluorescence measurements. The test items, substrate and enzyme were diluted in assay buffer. The highest test item concentration used was 25 μM. For the calculation of IC50 values, at least 16 log 2-dilutions of each test item were analyzed. As controls, the DPIV activity in the absence of test items as well as the spontaneous hydrolysis of the substrate was determined.
# (§4) The release of the fluorescent hydrolysis product AMC was measured at an excitation wavelength of 380 nm and an emission wavelength of 460 nm by using a microtitre fluorescence reader immediately after substrate addition as well as after 30, 60 and 120 min. The hydrolysis of the substrate (Ala-Pro)2-Rhodamine 110 was determined at an exitation wavelength of 488 nm and emission wavelength of 530 nm.
# T lymphocytes (T cells) = assay: Suppression of DNA synthesis of PHA-stimulated T lymphocytes; assay type: cell-based; conditions: tritium thymidine incorporation, read-out: Supp. DNA Synt. T-cell IC50
# Method: Peripheral blood mononuclear cells (PBMC) from healthy human volunteers were freshly isolated by density gradient centrifugation. T lymphocytes (T cells) were isolated from PBMC fractions via nylon wool adherence. Both cell populations were cultured in serum free lymphocyte medium (AIMV medium, Invitrogen) and stimulated by addition of 1 μg/ml Phytohemagglutinine for 48 hours in 96 well flat-bottom microtiter plates. Test compounds were added at concentration ranges from 0.1 up to 250 μM over the total assay period.
# DNA synthesis of proliferating PBMC was assessed by incorporation of nucleotide analogue bromdesoxyuridine (BrdU) and subsequent detection of BrdU by ELISA technique (Cell Proliferation Biotrak™ ELISA system, GE Health Care) according to the protocol of the manufacturer. DNA synthesis of proliferating T cells was determined by incorporation of radio labelled tritium thymidine and subsequent radio detection.
# Data output was based on raw data and calculation of relative proliferation response in relation to PHA-activated T cells in the absence of test compound (100% control). The IC50 value of proliferation suppression was assessed by graphical evaluation.
# [2] = biological target: T1, aminopeptidase N (APN), purified recombinant human enzyme (Homo sapiens, UniProt P15144); assay: Inhibition of enzymatic activity of aminopeptidase N (fluorogenic substrate hydrolysis); assay type: biochemical; conditions: highest test item concentration 25 μM; for IC50: read-out: meas. IC50 (APN)
# T1 construct: made in house; host or cells: ECV cells (transfected)
# Method: The inhibition of the enzymatic activity of aminopeptidase N (APN) was measured by using purified, recombinant human enzyme (purified from transfected ECV cells, final enzyme concentration approx. 1 nM). […] The assay was performed in 0.05M TRIS/HCl puffer pH 7.5, supplemented with 0.05% Triton (v/v), 0.05% BSA (w/v), 2 mM MgCl2.
# The aminopeptidase acitivities wer assessed by the hydrolysis of the fluorogenic substrates H-Ala-4-amino-7-methyl coumarine (abbreviation of fluorogenic group AMC; purchased from Bachem) or (Ala-)2-Rhodamine 110 (abbreviation R110). The final substrate concentrations were again 50 and 1 μM, respectively.
# as §3
# The release of the fluorescent hydrolysis products AMC and R110 was measured as described above for DPIV substrates.
# [3] = biological target: T2, purified, recombinant human DPIV (Homo sapiens, UniProt P27487); assay: Inhibition of enzymatic activity of DPIV (fluorogenic substrate hydrolysis); assay type: biochemical; conditions: highest test item concentration 25 μM; for IC50: read-out: meas. IC50 (DPIV)
# T2 construct: made in house; host or cells: Sf9 insect cells
# Method: as §1, §2, §3, §4
# [4] = biological target: T3, cytosolic aminopeptidase (cAAP) purified from Jurkat cells (Homo sapiens, UniProt P55786); assay: Inhibition of enzymatic activity of cytosolic aminopeptidase (cAAP); assay type: biochemical; conditions: highest test item concentration 25 μM; for IC50: read-out: meas. IC50 (cAAP)
# T3 construct: The cytosolic aminopeptidase (cAAP) was purified from Jurkat cells; endogenous in cells; host or cells: Jurkat cells (enzyme purified from them)
# NHEK cells = assay: Inhibition of DNA synthesis and proliferation of normal human epidermal keratinocytes (NHEK); assay type: cell-based; conditions: EGF-stimulated NHEK, BrdU incorporation, read-out: Supp. DNA Synt. NHEK IC50
# Method: NHEK cells (primary cells from person) were purchased from PromoCell. For these assay the adherent cells were cultured in serum-free Keratinocyte Growth medium 2 supplemented with epidermal growth factor (EGF) and bovine pituitary extract for 48 hours in flat-bottom microtiter plates. EGF stimulates the DNA synthesis and proliferation of these cells. Test items were added in concentrations from 0.1 up to 100 μM.
# The DNA synthesis was assessed by incorporation of bromdesoxyuridine (BrdU) and subsequent detection of BrdU by ELISA technique. Based on these raw data the relative proliferation response in relation to cells cultured in the absence of test compound (100% control) was calculated. IC50 values of proliferation suppression were assessed by computer-assisted graphical evaluation.
# T1 sequence (P15144 whole entry): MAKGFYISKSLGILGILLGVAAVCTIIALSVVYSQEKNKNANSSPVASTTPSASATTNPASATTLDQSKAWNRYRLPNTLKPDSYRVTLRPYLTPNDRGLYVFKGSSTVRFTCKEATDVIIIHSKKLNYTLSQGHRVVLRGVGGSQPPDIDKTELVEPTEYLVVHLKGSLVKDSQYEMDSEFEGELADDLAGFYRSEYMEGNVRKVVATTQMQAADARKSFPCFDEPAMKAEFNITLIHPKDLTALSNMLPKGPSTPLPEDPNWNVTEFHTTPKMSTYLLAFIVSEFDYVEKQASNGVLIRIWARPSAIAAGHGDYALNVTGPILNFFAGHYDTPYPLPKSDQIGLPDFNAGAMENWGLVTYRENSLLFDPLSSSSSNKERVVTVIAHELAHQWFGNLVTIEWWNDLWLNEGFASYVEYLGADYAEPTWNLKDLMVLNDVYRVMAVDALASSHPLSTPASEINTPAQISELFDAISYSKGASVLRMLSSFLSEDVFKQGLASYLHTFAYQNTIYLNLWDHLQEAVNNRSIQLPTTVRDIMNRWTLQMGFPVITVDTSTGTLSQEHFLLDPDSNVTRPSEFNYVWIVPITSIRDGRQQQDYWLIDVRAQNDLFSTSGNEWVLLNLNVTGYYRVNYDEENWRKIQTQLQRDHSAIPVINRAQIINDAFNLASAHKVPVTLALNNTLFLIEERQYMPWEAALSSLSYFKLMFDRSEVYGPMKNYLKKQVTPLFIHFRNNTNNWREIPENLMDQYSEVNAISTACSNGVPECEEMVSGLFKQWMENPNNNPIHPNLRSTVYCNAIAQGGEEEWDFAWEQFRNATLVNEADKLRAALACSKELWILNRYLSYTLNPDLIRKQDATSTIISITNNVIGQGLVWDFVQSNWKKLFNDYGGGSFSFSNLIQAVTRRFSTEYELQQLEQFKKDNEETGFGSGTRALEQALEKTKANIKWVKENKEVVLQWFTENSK
# T3 sequence (P55786 whole entry): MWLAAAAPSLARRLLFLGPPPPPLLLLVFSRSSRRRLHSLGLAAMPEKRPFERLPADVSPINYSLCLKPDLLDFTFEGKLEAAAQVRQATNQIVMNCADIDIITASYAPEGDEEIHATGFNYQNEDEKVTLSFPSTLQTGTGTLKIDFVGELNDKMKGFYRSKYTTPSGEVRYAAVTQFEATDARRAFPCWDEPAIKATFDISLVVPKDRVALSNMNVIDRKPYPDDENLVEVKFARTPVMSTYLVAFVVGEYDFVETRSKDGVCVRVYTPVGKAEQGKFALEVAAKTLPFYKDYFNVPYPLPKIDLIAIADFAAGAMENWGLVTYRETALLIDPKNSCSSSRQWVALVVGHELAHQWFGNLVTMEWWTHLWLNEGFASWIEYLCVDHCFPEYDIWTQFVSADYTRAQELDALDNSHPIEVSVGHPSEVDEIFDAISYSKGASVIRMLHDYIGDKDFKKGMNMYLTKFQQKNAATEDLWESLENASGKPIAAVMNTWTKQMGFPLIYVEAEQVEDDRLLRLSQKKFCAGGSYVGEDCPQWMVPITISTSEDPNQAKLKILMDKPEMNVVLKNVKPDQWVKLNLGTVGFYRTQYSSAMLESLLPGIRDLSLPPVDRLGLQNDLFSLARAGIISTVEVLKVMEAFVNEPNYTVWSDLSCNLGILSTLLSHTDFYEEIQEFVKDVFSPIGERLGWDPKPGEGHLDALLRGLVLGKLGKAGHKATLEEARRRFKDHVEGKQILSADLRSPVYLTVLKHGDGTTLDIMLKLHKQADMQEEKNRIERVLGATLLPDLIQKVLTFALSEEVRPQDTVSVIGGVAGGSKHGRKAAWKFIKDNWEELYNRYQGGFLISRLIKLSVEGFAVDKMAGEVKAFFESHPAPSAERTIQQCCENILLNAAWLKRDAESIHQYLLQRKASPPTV
# T2 sequence (P27487 whole entry): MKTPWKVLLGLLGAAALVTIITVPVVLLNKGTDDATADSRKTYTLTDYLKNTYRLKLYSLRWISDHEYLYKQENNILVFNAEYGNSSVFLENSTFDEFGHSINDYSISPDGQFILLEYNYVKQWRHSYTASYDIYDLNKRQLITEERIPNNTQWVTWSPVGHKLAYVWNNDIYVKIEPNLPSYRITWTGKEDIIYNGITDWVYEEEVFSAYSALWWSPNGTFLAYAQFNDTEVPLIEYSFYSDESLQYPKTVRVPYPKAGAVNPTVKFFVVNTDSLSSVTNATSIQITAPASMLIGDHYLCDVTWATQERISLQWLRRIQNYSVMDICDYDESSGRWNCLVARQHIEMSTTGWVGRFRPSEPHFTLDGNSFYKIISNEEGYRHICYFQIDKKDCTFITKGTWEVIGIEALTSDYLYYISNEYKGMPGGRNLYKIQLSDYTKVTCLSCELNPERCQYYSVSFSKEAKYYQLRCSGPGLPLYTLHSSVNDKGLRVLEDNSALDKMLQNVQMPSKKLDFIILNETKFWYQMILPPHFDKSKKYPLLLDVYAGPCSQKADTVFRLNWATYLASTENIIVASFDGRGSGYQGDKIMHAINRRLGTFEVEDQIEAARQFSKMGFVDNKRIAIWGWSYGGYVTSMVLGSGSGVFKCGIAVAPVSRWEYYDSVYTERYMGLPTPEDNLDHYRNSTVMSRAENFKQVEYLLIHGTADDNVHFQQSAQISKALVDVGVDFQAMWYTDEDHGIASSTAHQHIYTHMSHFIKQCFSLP
Compound,IC50 (SZ95 cells; Homo sapiens) [µM],IC50 [1] [µM],"IC50 (T lymphocytes (T cells); Homo sapiens, T-cell, 48 h) [µM]",IC50 [2] [µM],IC50 [3] [µM],IC50 [4] [µM],meas. IC50 (DP8/9) [1],meas. IC50 (APN) [2],meas. IC50 (DPIV) [3],"IC50 (NHEK cells; Homo sapiens, NHEK, 48 h) [µM]",further results
CC(C)(CNC(=O)CC(N)Cc1cc(F)ccc1F)CNC(=O)C(O)C(N)Cn1cnc2cncnc21 (stereo not drawn) [Compound C18.001],≥ 156,16,29.8,0.91,0.247,1,–,–,–,–,–
CC(C)(CNC(=O)CC(N)Cc1cc(F)ccc1F)CNC(=O)C(O)C(N)COCc1ccccc1 (stereo not drawn) [Compound C19.001],–,1.25,–,–,–,–,–,–,–,–,–
CC(C)(CNC(=O)CC(N)Cc1cc(F)ccc1F)CNC(=O)C(O)C(N)CO (stereo not drawn) [Compound C19.003],81.4,3.8,81.2,0.92,0.33,0.37,–,–,–,–,–
CC(C)(CNC(=O)CC(Cc1cc(F)ccc1F)NC(=O)OC(C)(C)C)CNC(=O)C(O)C(COCc1ccccc1)NC(=O)OC(C)(C)C (stereo not drawn) [Compound C19.004],–,–,–,–,–,–,no in- hibition,no in- hibition,no in- hibition,–,"IC50 (SZ95 cells): 18.3 µM; IC50 (T lymphocytes (T cells); PHA-stimulated human T cells, 48 hours): 9.7 µM; IC50 (NHEK cells; 48 hours): 19.8 µM; meas. IC50 (cAAP) [4]: no in- hibition"
CCCC(=O)OC(C(=O)Nc1cccc(C(=O)NCC(Cc2cc(F)ccc2F)NC(=O)OC(C)(C)C)c1)C(COCc1ccccc1)NC(=O)OC(C)(C)C (stereo not drawn) [Compound C19.005],10.7,–,11.5,–,–,5.7,no in- hibition,no in- hibition,no in- hibition,3.65,–
COc1ccc(COCC(NC(=O)OC(C)(C)C)C(O)C(=O)NCC(C)(C)CNC(=O)CC(Cc2cc(F)ccc2F)NC(=O)OC(C)(C)C)cc1 (stereo not drawn) [Compound C19.006],18.5,–,6.2,–,–,10.2,no in- hibition,no in- hibition,no in- hibition,24.1,–
CC(C)(CNC(=O)CC(N)Cc1cc(F)ccc1F)CNC(=O)C(O)C(N)COCc1ccccc1 (stereo not drawn) [Compound C19.020],–,1.2,–,–,–,–,–,–,–,–,–
CC(C)(CNC(=O)CC(N)Cc1cc(F)ccc1F)CNC(=O)C(O)C(N)COCc1ccccc1 (stereo not drawn) [Compound C19.022],–,1.2,–,–,–,–,–,–,–,–,–
CC(C)(C)OC(=O)NC(CCCCNS(=O)(=O)c1cccc(NC(=O)C(O)C(Cc2ccccc2)NC(=O)OC(C)(C)C)c1)C(=O)N1CCSC1 (stereo not drawn) [Compound C21.005],–,–,11.4,–,–,–,no in- hibition,no in- hibition,no in- hibition,15.3,meas. IC50 (cAAP) [4]: no in- hibition
NC(CCCCNS(=O)(=O)c1cccc(NC(=O)C(O)C(N)Cc2ccccc2)c1)C(=O)N1CCSC1 (stereo not drawn) [Compound C21.006],–,0.11,157,0.89,0.05,0.12,–,–,–,66.2,–
